Data taken from US20230058623A1, “NOVEL HETEROARYL-TRIAZOLE COMPOUNDS AS PESTICIDES” (Bayer Aktiengesellschaft, priority 2019, published 2023).

What was measured:
Assay type in all cases: in vivo
[1] = tested on: Rhipicephalus (Boophilus) microplus larvae (strain Parkhurst, resistant against synthetic pyrethroids); experiment: Rhipicephalus (Boophilus) microplus in-vitro contact test, larval cattle tick; details: after 48 hours, read-out: activity (efficacy: larvae dead or moribund); for pest or weed control at 1 µg/cm2, 100 g/ha: application rate 1 μg/cm^2 (=100 g/ha); for pest or weed control at 5 µg/cm2, 500 g/ha: application rate 5 μg/cm^2 (=500 g/ha)
Description: Rhipicephalus (Boophilus) microplus—In-Vitro Contact Tests Larval Cattle Tick (Strain Parkhurst, Resistant Against Synthetic Pyrethroids)
(§1) 9 mg compound is solved in 1 ml acetone and diluted with acetone to the desired concentration. 250 μL of the test solution is filled in 25 mL glass test tubes and homogeneously distributed on the inner walls by rotation and tilting on a shaking device (2 h at 30 rpm). With a compound concentration of 900 ppm, an inner surface of 44.7 cm^2 and a homogeneous distribution, a dose of 5 μg/cm^2 is achieved.
After the solvent has evaporated, each test tube is filled with 20-50 cattle tick larvae (Rhipicephalus microplus), closed with a perforated lid and incubated in a horizontal position at 85% relative humidity and 27° C. in an incubator. After 48 hours efficacy is determined. The larvae are patted on the ground of the tubes and negative geotactic behavior is recorded.
An efficacy of 100% means all larvae are dead or moribund; 0% means no larvae are dead or moribund.

[2] = tested on: adult brown dog ticks (Rhipicephalus sanguineus); experiment: Rhipicephalus sanguineus in-vitro contact test, adult brown dog ticks; details: application rate 5 μg/cm^2 (=500 g/ha), after 48 hours, read-out: activity (efficacy: ticks dead or moribund)
Description: Rhipicephalus sanguineus—In-Vitro Contact Tests with Adult Brown Dog Ticks
as §1, with “mL” for “ml”
(§2) After the solvent has evaporated, each test tube is filled with 5-10 adult brown dog ticks (Rhipicephalus sanguineus), closed with a perforated lid and incubated in a lying position at room temperature and relative humidity. After 48 hours efficacy is determined. The ticks are patted on the ground of the tubes and are incubated on a heating plate at 45-50° C. for at most 5 minutes. Immotile or uncoordinated moving ticks, which are not able to escape the heat by climbing upwards, are marked as dead or moribund.
An efficacy of 100% means all ticks are dead or moribund; 0% means no ticks are dead or moribund.

[3] = tested on: larvae of the banded cucumber beetle (Diabrotica balteata); experiment: Diabrotica balteata spray test; details: 168 h, application rate 100 g/ha (=32 μg/well), after 7 days, wheat seeds, read-out: activity (efficacy: seedlings grown)
Description: Diabrotica balteata—Spray Test
(§3) To produce a suitable preparation of active compound, 1 part by weight of active compound is mixed with the stated amount of solvent, and the concentrate is diluted with water, containing an emulsifier concentration of 1000 ppm, to the desired concentration. Further test concentrations are prepared by dilution with emulsifier containing water.
Soaked wheat seeds (Triticum aestivum) are placed in a multiple well plate filled with agar and some water and are incubated for 1 day to germinate (5 seeds per well). The germinated wheat seeds are sprayed with a test solution containing the desired concentration of the active ingredient. Afterwards each unit is infected with 10-20 larvae of the banded cucumber beetle (Diabrotica balteata).
After 7 days efficacy in % is determined. 100% means all the seedlings have grown up like in the untreated, uninfected control; 0% means none of the seedlings have grown.

[4] = tested on: fall armyworm larvae (Spodoptera frugiperda); experiment: Spodoptera frugiperda spray test; details: 168 h, application rate 100 g/ha, after 7 days, maize leaf sections
Description: Spodoptera frugiperda—Spray Test
as §3, with “solvents” for “solvent,”, “and” for “and the concentrate”
Maize (Zea mays) leaf sections are sprayed with a preparation of the active ingredient of the desired concentration. Once dry, the leaf sections are infested with fall armyworm larvae (Spodoptera frugiperda).
After 7 days mortality in % is determined. 100% means all caterpillars have been killed and 0% means none of the caterpillars have been killed.

[5] = tested on: adult cat fleas (Ctenocephalides felis); experiment: Ctenocephalides felis in-vitro contact test, adult cat flea; details: application rate 5 μg/cm^2 (=500 g/ha), after 48 hours, read-out: activity (efficacy: fleas dead or moribund)
Description: Ctenocephalides felis—In-Vitro Contact Tests Adult Cat Flea
as §1, with “mL” for “ml”
as §2, with “cat fleas (Ctenocephalides felis),” for “brown dog ticks (Rhipicephalus sanguineus),”, “fleas” for “ticks”, “fleas,” for “ticks,”
An efficacy of 100% means all fleas are dead or moribund; 0% means no fleas are dead or moribund.

[6] = tested on: green peach aphid (Myzus persicae); experiment: Myzus persicae oral test; details: 120 h, read-out: activity (mortality)
Description: Solvent: 100 parts by weight acetone
To produce a suitable preparation of active compound, 1 part by weight of active compound is mixed with the stated amount of solvent, and the concentrate is diluted with water to the desired concentration.
50 μL compound solution is filled in microtiter plates and 150 μL IPL41 insect medium (33%+15% sugar) is added to obtain a total volume of 200 μL per well. Afterwards the plates are sealed with parafilm through which a mixed population of the green peach aphid (Myzus persicae) can suck on the compound preparation.
(§4) After 5 days mortality in % is determined. 100% means all aphids have been killed and 0% means none of the aphids have been killed.

[7] = tested on: green peach aphid (Myzus persicae); experiment: Myzus persicae spray test; details: foliar, 120 h, after 5 days, Chinese cabbage leaf disks; for mortality at 100 g/ha: application rate 100 g/ha, read-out: activity (mortality)
Description: Myzus persicae—Spray Test
as §3, with “solvents” for “solvent,”, “and” for “and the concentrate”
Chinese cabbage (Brassica pekinensis) leaf disks infected with all instars of the green peach aphid (Myzus persicae), are sprayed with a preparation of the active ingredient of the desired concentration.
as §4

[8] = tested on: adult engorged female ticks (Rhipicephalus microplus); experiment: Rhipicephalus (Boophilus) microplus injection test; details: 168 h, application rate 4 μg/tick, egg deposition after 7 days, read-out: activity (efficacy: infertile eggs)
Description: Rhipicephalus (Boophilus) microplus—Injection Test
Solvent: dimethyl sulfoxide
To produce a suitable preparation of active compound, 10 mg of active compound are dissolved in 0.5 mL solvent, and the concentrate is diluted with solvent to the desired concentration.
Five adult engorged female ticks (Rhipicephalus microplus) are injected with 1 μL compound solution into the abdomen. The ticks are transferred into replica plates and incubated in a climate chamber.
After 7 days egg deposition of fertile eggs is monitored. Eggs where fertility is not visible are stored in a climate chamber till hatching after about 42 days. An efficacy of 100% means all eggs are infertile; 0% means all eggs are fertile.

Compound | pest or weed control at 1 µg/cm2, 100 g/ha [1] | pest or weed control at 5 µg/cm2, 500 g/ha [1] | pest or weed control at 5 µg/cm2, 500 g/ha [2] | pest or weed control at 32 µg/disc, 100 g/ha [3] | mortality at 100 g/ha [4] | pest or weed control at 5 µg/cm2 [5] | mortality at 4 ppm [6] | mortality at 100 g/ha [7] | mortality at 500 g/ha ([7]; application rate 500 g/ha) | pest or weed control at 0.004 mg [8]
CC(NC(=O)c1cc(C(F)(F)F)cc(C(F)(F)F)c1)c1nc(Br)nn1-c1ccc(C(=O)N2CCOCC2)cn1 (racemic) [Example I-86, N-[1-[5-bromo-2-[5-(morpholine-4-carbonyl)-2-pyridyl]-1,2,4-triazol-3-yl]ethyl]-3,5-bis(trifluoromethyl)benzamide] | 100% | 100% | 80% | 100% | 83% | – | – | – | – | –
Cc1nc([C@H](C)NC(=O)c2cc(C(F)(F)F)cc(C(F)(F)F)c2)n(-c2ccc(C(=O)N3CCOCC3c3ncno3)cn2)n1 (stereo partly shown) [Example I-99] | 100% | 100% | 80% | – | – | 100% | 100% | 90% | – | –
C[C@H](NC(=O)c1cc(Cl)cc(C(F)(F)F)c1)c1ncnn1-c1ccc(N2CCOCC2)cn1 [Example I-43] | 100% | 100% | 100% | 100% | – | – | – | – | – | –
C[C@H](NC(=O)c1cc(OC(F)(F)F)cc(C2CC2)c1)c1ncnn1-c1ccc(N2CCOCC2)cn1 [Example I-104] | 100% | 100% | – | 100% | – | 90% | – | 90% | – | –
Cc1nc([C@H](C)NC(=O)c2cc(C(F)(F)F)cc(C(F)(F)F)c2)n(-c2ccc(C(=O)N3C[C@@H](C)O[C@@H](C)C3)nn2)n1 [Example I-139] | 100% | 100% | 100% | 100% | – | – | – | – | – | –
C[C@H](NC(=O)c1cc(OC(F)(F)F)cc(C2CC2)c1)c1ncnn1-c1ccc(C(=O)N2CCOC[C@@H]2C)cn1 [Example I-66] | 100% | 100% | – | 100% | 83% | 100% | – | – | – | –
C[C@H](NC(=O)c1cc(OC(F)(F)F)cc(C2CC2)c1)c1ncnn1-c1ccc(N2CCOCC2=O)cn1 [Example I-58] | – | – | – | – | – | – | – | – | 90% | –
C[C@H](NC(=O)c1cc(C(F)(F)F)cc(C(F)(F)F)c1)c1ncnn1-c1ccc(C(=O)N2CCOCC2c2ccnn2C)cn1 (stereo partly shown) [Example I-100] | 90% | 90% | – | 100% | 83% | 80% | – | – | – | –
C[C@H](NC(=O)c1cc(Cl)cc(C(F)(F)F)c1)c1ncnn1-c1ccc(N2CCSCC2=O)cn1 [Example I-55] | – | – | – | – | – | 80% | 100% | – | – | –
C[C@@H]1CN(C(=O)c2cnc(-n3ncnc3[C@H](C)NC(=O)c3cc(OC(F)(F)F)cc(C4CC4)c3)nc2)C[C@H](C)O1 [Example I-148] | – | – | – | 100% | 100% | – | – | 90% | – | –
Cc1nc([C@H](C)NC(=O)c2cc(Cl)cc(C(F)(F)F)c2)n(-c2ccc(C(=O)N3CC[C@@H](O)C3)cn2)n1 [Example I-26] | – | – | – | – | – | – | 100% | – | – | 100%
Cc1nc([C@H](C)NC(=O)c2cc(C(F)(F)F)cc(C(F)(F)F)c2)n(-c2ncc(C(=O)N3CCCC3)s2)n1 [Example I-16, N-[(1S)-1-{3-methyl-1-[5-(pyrrolidin-1-ylcarbonyl)-1,3-thiazol-2-yl]-1H-1,2,4-triazol-5-yl}ethyl]-3,5-bis(trifluoromethyl)benzamide] | 100% | 100% | – | 100% | 100% | – | 100% | – | – | 80%
Cc1nc([C@H](C)NC(=O)c2cc(Cl)cc(C(F)(F)F)c2)n(-c2ccc(C(=O)N3CC[C@H](O)C3)cn2)n1 [Example I-25] | – | – | – | – | – | – | 100% | – | – | 100%
C[C@@H]1CN(C(=O)c2ccc(-n3ncnc3[C@H](C)NC(=O)c3cc(Cl)cc(S(C)(=O)=O)c3)nc2)C[C@H](C)O1 [Example I-53] | – | – | – | – | 100% | 100% | 100% | – | – | –
Cc1nc([C@H](C)NC(=O)c2cc(Br)cc(OC(F)(F)F)c2)n(-c2ncc(C(=O)N3CCOCC3)s2)n1 [Example I-136] | 100% | 100% | 100% | – | 100% | – | – | – | – | –
C[C@H](NC(=O)c1cc(C(F)(F)F)cc(C(F)(F)F)c1)c1ncnn1-c1ccc(C(=O)N(C)C2CCOCC2)cn1 [Example I-110] | 100% | 100% | – | – | 100% | 100% | 100% | 90% | – | –
C[C@H](NC(=O)c1cc(C(F)(F)F)cc(C(F)(F)F)c1)c1ncnn1-c1ccc(C(=O)N2CCOC[C@H]2C)cn1 [Example I-71] | 100% | 100% | 80% | 100% | 100% | 100% | 100% | – | – | –
